{"source": "patent US4132846A", "key": {"[1]": {"test_system": "Staphylococus aureus Smith", "experiment": "MIC, agar dilution method at pH 7.2", "type": "cell-based", "text": "(§1) Anti-bacterial Spectrum (Minimum Inhibitory Concentration, mcg/ml)"}, "[2]": {"test_system": "Salmonella typhosa ATCC 9992", "experiment": "MIC, agar dilution method at pH 8.0", "type": "cell-based", "settings": "Salmonella enterica, pH 8, read-out: minimum Inhibitory Concentration"}, "[3]": {"test_system": "Proteus vulgaris ATCC 6897", "experiment": "microbe, parasite or virus in culture", "type": "cell-based", "settings": "ATCC6897, pH 8, read-out: minimum Inhibitory Concentration"}, "[4]": {"test_system": "Staphylococcus aureus ATC 6538P", "experiment": "MIC, agar dilution method at pH 8.0", "type": "cell-based", "settings": "ATC6538P"}, "[5]": {"test_system": "Klebsiella pneumoniae ATCC 10031", "experiment": "MIC, agar dilution method at pH 8.0", "type": "cell-based", "settings": "ATCC10031, pH 8, read-out: minimum Inhibitory Concentration"}, "[6]": {"test_system": "Staphylococcus aureus 209 P", "experiment": "MIC, agar dilution method at pH 7.2", "type": "cell-based", "settings": "read-out: Minimum Inhibitory Concentration", "text": "as §1"}, "[7]": {"test_system": "Pseudomonas aeruginosa BMH 1", "experiment": "MIC, agar dilution method at pH 7.2", "type": "cell-based", "settings": "BMH1, read-out: Minimum Inhibitory Concentration", "text": "as §1"}, "[8]": {"test_system": "Klebsiella pneumoniae No. 8045", "experiment": "MIC, agar dilution method at pH 7.2", "type": "cell-based", "settings": "read-out: Minimum Inhibitory Concentration", "text": "as §1"}, "[9]": {"test_system": "Proteus mirabilis 1287", "experiment": "MIC, agar dilution method at pH 7.2", "type": "cell-based", "settings": "read-out: Minimum Inhibitory Concentration", "text": "as §1"}, "[10]": {"test_system": "Bacillus subtilis ATCC 6633", "experiment": "MIC, agar dilution method at pH 7.2", "type": "cell-based", "settings": "ATCC6633, read-out: Minimum Inhibitory Concentration", "text": "as §1"}, "[11]": {"test_system": "Proteus vulgaris 6897", "experiment": "MIC, agar dilution method at pH 7.2", "type": "cell-based", "settings": "Proteus vulgaris 6897; agar dilution, pH 7.2; read-out: Minimum Inhibitory Concentration", "text": "as §1"}, "[12]": {"test_system": "Pseudomonas aeruginosa BMH 1", "experiment": "MIC, agar dilution method at pH 8.0", "type": "cell-based", "settings": "BMH1, read-out: minimum Inhibitory Concentration"}, "[13]": {"test_system": "Bacillus subtilis No. 10707", "experiment": "MIC, agar dilution method at pH 8.0", "type": "cell-based"}, "[14]": {"test_system": "Escherichia coli KY 8327", "experiment": "MIC, agar dilution method at pH 7.2", "type": "cell-based", "settings": "KY8327, Escherichia coli KY 8327 (produces gentamicin adenyltransferase), read-out: Minimum Inhibitory Concentration", "text": "as §1\n^1 produces gentamicin adenyltransferase"}, "[15]": {"test_system": "Escherichia coli KY 8348", "experiment": "MIC, agar dilution method at pH 7.2", "type": "cell-based", "settings": "KY8348, Escherichia coli KY 8348 (gentamicin acetyltransferase Type I), read-out: Minimum Inhibitory Concentration"}, "[16]": {"test_system": "Pseudomonas aeruginosa KY 8512", "experiment": "MIC, agar dilution method at pH 7.2", "type": "cell-based", "settings": "KY8512, Pseudomonas aeruginosa KY 8512 (neomycin-kanamycin phosphotransferase Type I and II, streptomycin phosphotransferase), read-out: Minimum Inhibitory Concentration", "text": "as §1\n^7 produces neomycin-kanamycin phosphotransferase Type I and Type II\nand streptomycin phosphotransferase"}, "[17]": {"test_system": "Escherichia coli KY 8321", "experiment": "MIC, agar dilution method at pH 7.2", "type": "cell-based", "settings": "KY8321, Escherichia coli KY 8321 (gentamicin adenyltransferase and neomycin-kanamycin phosphotransferase Type II), read-out: Minimum Inhibitory Concentration", "text": "^2 produces gentamicin adenyltransferase and neomycin-kanamycin\nphosphotransferase Type II"}, "[18]": {"test_system": "Shigella sonnei ATCC 9290", "experiment": "microbe, parasite or virus in culture", "type": "cell-based", "settings": "ATCC9290, agar dilution, pH 8.0, read-out: minimum Inhibitory Concentration"}, "[19]": {"test_system": "Escherichia coli KY 8349", "experiment": "MIC, agar dilution method at pH 7.2", "type": "cell-based", "settings": "KY8349, Escherichia coli KY 8349 (neomycin-kanamycin phosphototransferase Type I), read-out: Minimum Inhibitory Concentration", "from_the_text": "^4 produces neomycin-kanamycin phosphototransferase Type I"}, "[20]": {"test_system": "Escherichia coli ATC 26", "experiment": "MIC, agar dilution method at pH 8.0", "type": "cell-based", "settings": "ATC26, read-out: minimum Inhibitory Concentration"}, "[21]": {"test_system": "Pseudomonas aeruginosa KY 8511", "experiment": "MIC, agar dilution method at pH 7.2", "type": "cell-based", "settings": "KY8511, Pseudomonas aeruginosa KY 8511 (gentamicin acetyltransferase Type I and neomycin-kanamycin phosphotransferase Type I), read-out: Minimum Inhibitory Concentration", "from_the_text": "^6 produces gentamicin acetyltransferase Type I and neomycin-kanamyci"}, "[22]": {"test_system": "Pseudomonas aeruginosa KY 8510", "experiment": "MIC, agar dilution method at pH 7.2", "type": "cell-based", "settings": "KY8510, Pseudomonas aeruginosa KY 8510 (kanamycin acetyltransferase), read-out: Minimum Inhibitory Concentration"}, "[23]": {"test_system": "Providencia sp. 164", "experiment": "MIC, agar dilution method at pH 7.2", "type": "cell-based", "settings": "Providencia sp. 164 (gentamicin acetyltransferase Type II), read-out: Minimum Inhibitory Concentration"}, "[24]": {"test_system": "Escherichia coli KY 8327", "experiment": "MIC, agar dilution method at pH 8.0", "type": "cell-based", "settings": "KY8327, Escherichia coli KY 8327 (produces gentamicin adenyltransferase), read-out: minimum Inhibitory Concentration", "text": "(§2) The former bacterium inactivates kanamycins and gentamicins by adenylation, and the latter inactivates gentamicins by acetylation."}, "[25]": {"test_system": "Escherichia coli KY 8348", "experiment": "MIC, agar dilution method at pH 8.0", "type": "cell-based", "settings": "KY8348, Escherichia coli KY 8348 (produces gentamicin acetyltransferase Type I), read-out: minimum Inhibitory Concentration", "text": "as §2"}, "[26]": {"settings": "in water and methanol; cited from earlier work"}}, "note": "Read-outs that look alike come from different tables or passages of the source."}
{"smiles": "NC[C@H]1O[C@H](O[C@H]2[C@H](O)[C@@H](O[C@H]3O[C@H](CO)[C@@H](O)[C@H](N)[C@H]3O)[C@H](N)C[C@@H]2N)[C@H](O)[C@@H](O)[C@@H]1O", "note": "[Kanamycin A, kanamycin A, reference compound]", "values": [{"measurement": "MIC", "setting": "[1]; pH 7.2, read-out: Minimum Inhibitory Concentration", "value": 0.2, "unit": "µg/mL"}, {"measurement": "MIC", "setting": "[2]", "value": 0.08, "unit": "µg/mL"}]}
{"smiles": "CNCC1CCC(N)C(OC2C(N)CC(NC(=O)[C@@H](O)CN)C(OC3OCC(C)(O)C(NC)C3O)C2O)O1", "note": "(stereo partly drawn) [L-form]", "values": [{"measurement": "MIC", "setting": "[3]", "value": 0.033, "unit": "µg/mL"}, {"measurement": "MIC", "setting": "[4]; Staphylococcus aureus, pH 8, read-out: minimum Inhibitory Concentration", "value": 4, "unit": "ng/mL"}, {"measurement": "MIC", "setting": "[5]", "value": 4, "unit": "ng/mL"}, {"measurement": "MIC", "setting": "[6]", "value": 0.05, "unit": "µg/mL"}, {"measurement": "MIC", "setting": "[7]", "value": 1.56, "unit": "µg/mL"}, {"measurement": "MIC", "setting": "[8]", "value": 0.2, "unit": "µg/mL"}, {"measurement": "MIC", "setting": "[9]", "value": 3.12, "unit": "µg/mL"}, {"measurement": "MIC", "setting": "[10]", "value": 0.05, "unit": "µg/mL"}, {"measurement": "MIC", "setting": "[11]", "value": 1.56, "unit": "µg/mL"}, {"measurement": "MIC", "setting": "[12]", "value": 1.04, "unit": "µg/mL"}, {"measurement": "MIC", "setting": "[13]; Bacillus subtilis, NO.10707, pH 8, read-out: minimum Inhibitory Concentration", "value": 4, "unit": "ng/mL"}, {"measurement": "MIC", "setting": "[14]", "value": 0.2, "unit": "µg/mL"}, {"measurement": "MIC", "setting": "[15]", "value": 0.2, "unit": "µg/mL"}, {"measurement": "MIC", "setting": "[2]", "value": 0.004, "unit": "µg/mL"}, {"measurement": "MIC", "setting": "[16]", "value": 0.78, "unit": "µg/mL"}, {"measurement": "MIC", "setting": "[17]", "value": 0.4, "unit": "µg/mL"}, {"measurement": "MIC", "setting": "[18]", "value": 8, "unit": "ng/mL"}, {"measurement": "MIC", "setting": "[19]", "value": 0.2, "unit": "µg/mL"}, {"measurement": "MIC", "setting": "[20]", "value": 4, "unit": "ng/mL"}, {"measurement": "MIC", "setting": "[21]", "value": 3.12, "unit": "µg/mL"}, {"measurement": "MIC", "setting": "[22]", "value": 3.12, "unit": "µg/mL"}, {"measurement": "MIC", "setting": "[23]", "value": 6.25, "unit": "µg/mL"}, {"measurement": "MIC", "setting": "[24]", "value": 4, "unit": "ng/mL"}, {"measurement": "MIC", "setting": "[25]", "value": 4, "unit": "ng/mL"}]}
{"smiles": "CNC[C@@H]1CC[C@@H](N)[C@@H](O[C@H]2[C@H](O)[C@@H](O[C@H]3OC[C@](C)(O)[C@H](NC)[C@H]3O)[C@H](N)C[C@@H]2N)O1", "note": "[XK-62-2, reference compound]", "values": [{"measurement": "MIC", "setting": "[4]; Staphylococcus aureus ATC 6538P, agar dilution, pH 8.0, read-out: minimum Inhibitory Concentration", "value": 8, "unit": "ng/mL"}, {"measurement": "MIC", "setting": "[1]; Staphylococus aureus Smith, agar dilution, pH 7.2, read-out: Minimum Inhibitory Concentration", "value": "< 0.05", "unit": "µg/mL"}, {"measurement": "MIC", "setting": "[13]; Bacillus subtilis No. 10707, agar dilution, pH 8.0, read-out: minimum Inhibitory Concentration", "value": 4, "unit": "ng/mL"}, {"measurement": "solubility", "setting": "[26]", "value": "freely soluble"}]}
